# Results published in patent publication US5952307A, “Basic α-aminoalkylphosphonate derivatives” (priority 1997, dated 1999).
# Key:
# Format in all cases: biochemical
# [1] = biological target: T1, human granzyme A (Homo sapiens, UniProt P12544); test: Inactivation rate of human granzyme A, incubation method; details: Table I; 0.1M Hepes, 0.01M CaCl2 pH 7.5, 25° C., 7.6% DMSO, substrate Z--Arg--SBzl
# T1 sequence (P12544 29-262): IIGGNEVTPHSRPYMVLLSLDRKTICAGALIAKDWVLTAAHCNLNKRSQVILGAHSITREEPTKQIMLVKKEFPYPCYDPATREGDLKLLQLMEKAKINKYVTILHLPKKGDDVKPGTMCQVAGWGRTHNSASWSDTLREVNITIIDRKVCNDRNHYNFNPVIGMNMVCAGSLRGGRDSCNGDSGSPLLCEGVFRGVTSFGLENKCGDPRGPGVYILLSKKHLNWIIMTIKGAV
# In short: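 Inhibitor in DMSO added to enzyme (0.01-2.3 μM) in 0.1 M HEPES, 0.01 M CaCl2, pH 7.5, 25° C (DMSO 7.6% for granzyme A, 7.1% for granzyme K); residual activity on Z-Arg-SBzl with DTNB read at intervals. Kobs from ln vt/vo vs time plots.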
# [2] = biological target: T2, rat granzyme K (Rattus norvegicus, UniProt P49864); test: Inactivation rate of rat granzyme K, incubation method; details: Table I; 0.1M Hepes, 0.01M CaCl2 pH 7.5, 25° C., 7.1% DMSO, substrate Z--Arg--SBzl; NI = no inhibition after 25 min of incubation
# T2 sequence (P49864 26-258): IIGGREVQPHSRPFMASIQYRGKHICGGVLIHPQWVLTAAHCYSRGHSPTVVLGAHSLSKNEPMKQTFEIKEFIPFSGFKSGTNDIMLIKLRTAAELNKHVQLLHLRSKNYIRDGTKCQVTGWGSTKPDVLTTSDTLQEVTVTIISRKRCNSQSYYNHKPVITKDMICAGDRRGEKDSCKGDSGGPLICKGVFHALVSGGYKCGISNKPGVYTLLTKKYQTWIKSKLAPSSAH
# Protocol: (§1) Inactivation rates of serine proteases by aryl diesters of peptidyl derivatives of α-aminoalkylphosphonates were measured by the incubation method. An aliquot of inhibitor (25 or 50 μl) in Me2 SO was added to a buffered enzyme solution (0.01-2.3 μM) to initiate the inactivation. Aliquots (50 μl) were withdrawn at various intervals and the residual enzymatic activity was measured. Me2 SO concentration in the reaction mixture was 8-12% (v/v). A 0.1 M HEPES, 0.01 M CaCl2, pH 7.5 buffer was utilized for trypsin and trypsin-like enzymes. A 0.1 M HEPES, 0.5 M NaCl, pH 7.5, was utilized for the other serine proteases. Peptide thioesters or peptide nitroanilides with the appropriate sequences were used as substrates for various serine proteases. All peptide thioesters hydrolysis rates were measured with the assay mixture containing 4,4'-dithiodipyridine {ε324 =19800 M^-1 cm^-1; Grasetti & Murray, Arch. Biochem. Biophys. 1967, 119, 41-48}. Peptide 4-nitroanilide hydrolysis was measured at 410 nm {ε410 =8800 M^-1 cm^-1; Erlanger et al., Arch. Biochem. Biophys. 1961, 95, 271-278}. First order inactivation rate constants (Kobs) were obtained from plots of In vt /vo vs time, and the correlation coefficients were greater then 0.98.
# (§2) ^a Inhibition constants were measured in 0.1M Hepes, 0.01M CaCl2
# (§3) pH 7.5 for trypsin, granzymes A, and K, and in 0.1M Hepes, 10% glycerol,
# (§4) 10 mM heparin, pH 7.5 for mast cell tryptase, and at 25° C. The
# (§5) reaction mixtures contained 2% DMSO for trypsin, 7.6% for granzyme A, and
# (§6) 7.1% for granzyme K and tryptase. The substrate was Z--Arg--SBzl for
# (§7) granzymes and trypsin, and Z--Arg--SBzl or Z--Lys--SBzl for tryptase in
# (§8) the presence of DTNB. The inhibitor # concentration ranged from 0.001 to
# (§9) ^b NI, no inhibition after 25 min of incubation with enzyme.
# [3] = test system: rat granzyme A; test: Inactivation rate of rat granzyme A, incubation method; details: Table I; 0.1M Hepes, 0.01M CaCl2 pH 7.5, 25° C., 7.6% DMSO, substrate Z--Arg--SBzl
# Protocol: as §1, §2, §3, §4, §5, §6, §7, §8, §9
# [4] = biological target: T3, bovine trypsin (Bos taurus, UniProt P00760); test: Inactivation rate of bovine trypsin, incubation method; details: for kobsd /[I] bovine trypsin: Table I, 0.1M Hepes, 0.01M CaCl2 pH 7.5, 25° C., 2% DMSO, substrate Z--Arg--SBzl, NI = no inhibition after 25 min; for kobs /[I] bovine trypsin: Table II, 0.13 μM trypsin, 0.25-42 μM inhibitor, 80 mM Hepes pH 7.5, 1 mM CaCl2, 8% DMSO, 25° C., NI = no inhibition
# T3 sequence (P00760 24-246): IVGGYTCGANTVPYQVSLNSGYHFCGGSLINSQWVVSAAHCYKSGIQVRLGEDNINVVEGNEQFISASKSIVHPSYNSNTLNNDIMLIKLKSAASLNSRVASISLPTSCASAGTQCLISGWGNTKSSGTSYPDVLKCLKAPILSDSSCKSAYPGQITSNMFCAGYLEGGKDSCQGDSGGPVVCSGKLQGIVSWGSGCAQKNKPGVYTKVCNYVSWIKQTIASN
# In short: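 Incubation method: trypsin pre-incubated with inhibitor (0.25-42 μM) at 25° C in 80 mM Hepes, 1 mM CaCl2, pH 7.5, 8% DMSO; aliquots withdrawn over time for residual activity on Z-Arg-SBzl thioester with DTNB or 4,4'-dithiodipyridine. Pseudo-first-order kobs from ln vt/vo versus time.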
# [5] = biological target: T4, human thrombin (Homo sapiens, UniProt P00734); details: Table II; 0.07 μM thrombin, 0.25-42 μM inhibitor, 80 mM Hepes pH 7.5, 428 mM NaCl, 8% DMSO, 25° C.; NI = no inhibition
# T4 construct: bovine trypsin, human thrombin
# In short: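 Irreversible inactivation followed by incubation method at 25 °C: 0.07 μM thrombin with 0.25–42 μM inhibitor in 80 mM Hepes pH 7.5, 428 mM NaCl, 8% DMSO. Residual activity of withdrawn aliquots measured with thioester or 4-nitroanilide substrates; kobs from pseudo-first-order fits.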
# [6] = biological target: mast cell tryptase (Homo sapiens, UniProt Q15661); test: Inactivation rate of mast cell tryptase, incubation method; details: for kobsd /[I] mast cell tryptase: 0.1M Hepes, 10% glycerol, 10 mM heparin, pH 7.5, 25° C., 7.1% DMSO, NI = no inhibition after 25 min of incubation; for kobs /[I] mast cell tryptase: 0.07 μM tryptase, 20-66 μM inhibitor, Hepes pH 7.5, heparin, 9% glycerol, 8% DMSO, 25° C., NI = no inhibition
# Sequence of mast cell tryptase (Q15661 31-275): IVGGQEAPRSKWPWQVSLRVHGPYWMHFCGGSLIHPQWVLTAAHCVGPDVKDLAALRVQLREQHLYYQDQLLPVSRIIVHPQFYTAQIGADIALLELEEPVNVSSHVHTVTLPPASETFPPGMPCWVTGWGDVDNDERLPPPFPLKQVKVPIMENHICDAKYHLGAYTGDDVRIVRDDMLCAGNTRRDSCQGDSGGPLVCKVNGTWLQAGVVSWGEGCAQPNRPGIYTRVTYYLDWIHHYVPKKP
# In short: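 Incubation method at 25 °C: 0.07 μM tryptase with 20–66 μM inhibitor in Hepes pH 7.5 containing heparin, glycerol and DMSO. Aliquots were withdrawn at intervals for residual activity on Z-Arg-SBzl or Z-Lys-SBzl with DTNB. Pseudo-first-order kobs came from ln(vt/v0) versus time.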
Structure (SMILES),kobsd /[I] human granzyme A [1] [M⁻¹ s⁻¹],kobsd /[I] rat granzyme K [2] [M⁻¹ s⁻¹],kobsd /[I] rat granzyme A [3] [M⁻¹ s⁻¹],kobsd /[I] bovine trypsin [4] [M⁻¹ s⁻¹],kobs /[I] bovine trypsin [4],kobs /[I] human thrombin [5],"% Inh mast cell tryptase ([6]; Table I, printed in the kobsd/[I] column) [%]","% Inh mast cell tryptase ([6]; Table II, printed in the kobs/[I] column) [%]",kobsd /[I] mast cell tryptase ([6]; Table I) [M⁻¹ s⁻¹],kobs /[I] mast cell tryptase ([6]; Table II) [M⁻¹ s⁻¹]
N=C(N)c1ccc(C(NC(=O)C(Cc2ccccc2)NC(=O)OCc2ccccc2)P(=O)(Oc2ccccc2)Oc2ccccc2)cc1 (mixture of isomers) [Cbz--Phe-(4-AmPhGly)^P (OPh)2],14 ± 1,13,8,17 ± 1,17 ± 1 M⁻¹ s⁻¹,20 ± 1 M⁻¹ s⁻¹,5,5,–,–
"Cl.N=C(N)c1ccc(C(NC(=O)/C=C/c2ccccc2)P(=O)(Oc2ccccc2)Oc2ccccc2)cc1 (stereo not drawn) [trans-Cinnamoyl-(4-AmPhGly)^P (OPh)2, Diphenyl N-(trans-Cinnamoyl)amino(4-amidinophenyl)methanephosphonate Hydrochloride]",400 ± 10,3,340 ± 18,110 ± 1,110 ± 1 M⁻¹ s⁻¹,20 ± 1 M⁻¹ s⁻¹,–,–,0.3,0.3
C[C@H](NC(=O)OCc1ccccc1)C(=O)N[C@@H](C)C(=O)NC(c1ccc(C(=N)N)cc1)P(=O)(Oc1ccccc1)Oc1ccccc1 (stereo partly shown) [Cbz--Ala--Ala-(4-AmPhGly)^P (OPh)2],820 ± 29,5,480 ± 27,3620 ± 588,"3,620 ± 588 M^-1 s^-1","3,030 ± 222 M^-1 s^-1",–,–,2,2 ± 0
"Cl.N=C(N)c1ccc(C(NC(=O)c2cccc(Oc3ccccc3)c2)P(=O)(Oc2ccccc2)Oc2ccccc2)cc1 (stereo not shown) [3-Phenoxybenzoyl-(4-AmPhGly)^P (OPh)2, Diphenyl N-(3-Phenoxybenzoyl)amino(4-amidinophenyl)methanephosphonate Hydrochloride]",340 ± 53,1,470 ± 14,50 ± 2,50 ± 2 M⁻¹ s⁻¹,200 ± 8 M⁻¹ s⁻¹,–,–,–,–
Cl.N=C(N)c1ccc(C(NC(=O)C=Cc2cccs2)P(=O)(Oc2ccccc2)Oc2ccccc2)cc1 (stereo not shown) [Diphenyl N-(3-(2-Thienyl)acryloyl)amino(4-amidinophenyl)methanephosphonate Hydrochloride],740 ± 18,4,430 ± 31,300 ± 22,300 ± 22 M⁻¹ s⁻¹,90 ± 4 M⁻¹ s⁻¹,–,–,1,1
N=C(N)c1ccc(C(NC(=O)C(CCCCN)NC(=O)OCc2ccccc2)P(=O)(Oc2ccccc2)Oc2ccccc2)cc1 (mixture of isomers) [Cbz--Lys-(4-AmPhGly)^P (OPh)2],30 ± 1,1,15 ± 1,30 ± 1,30 ± 1 M⁻¹ s⁻¹,88 ± 2 M⁻¹ s⁻¹,–,–,–,–
"Cl.N=C(N)c1ccc(C(NC(=O)C=Cc2ccco2)P(=O)(Oc2ccccc2)Oc2ccccc2)cc1 (stereo not shown) [(2-Furyl)acryloyl-(4-AmPhGly)^P (OPh)2, Diphenyl N-(3-(2-Furyl)acryloyl)amino(4-amidinophenyl)methanephosphonate Hydrochloride]",1740 ± 41,32,1740 ± 237,360 ± 28,360 ± 28 M⁻¹ s⁻¹,15 ± 1 M⁻¹ s⁻¹,–,–,–,–
Cl.N=C(N)c1ccc(C(NC(=O)/C=C/c2cccnc2)P(=O)(Oc2ccccc2)Oc2ccccc2)cc1 (stereo not drawn) [Diphenyl N-(trans-3-(3-Pyridyl)acryloyl)amino(4-amidinophenyl)methanephosphonate Hydrochloride],5,3,1,–,–,2 M⁻¹ s⁻¹,–,–,–,–
CC(NC(=O)OCc1ccccc1)C(=O)NC(c1ccc(C(=N)N)cc1)P(=O)(Oc1ccccc1)Oc1ccccc1 (mixture of isomers) [Cbz--Ala-(4-AmPhGly)^P (OPh)2],1670 ± 11,–,1270 ± 85,1850 ± 85,"1,850 ± 85 M^-1 s^-1",750 ± 18 M⁻¹ s⁻¹,–,–,0.8,0.8
N=C(N)c1ccc(C(NC(=O)Oc2cccc3ccccc23)P(=O)(Oc2ccccc2)Oc2ccccc2)cc1 (stereo not shown) [1-Naphthyloxycarbonyl-(4-AmPhGly)^P (OPh)2],160 ± 2,12,90 ± 9,30 ± 1,30 ± 1 M⁻¹ s⁻¹,30 ± 2 M⁻¹ s⁻¹,–,–,–,–
